Measured values published in patent publication US20250312462A1, “PAK1 DEGRADERS AND METHODS OF USE THEREOF” (INSTITUTE FOR CANCER RESEARCH D/B/A THE RESEARCH INSTITUTE …, priority 2022, published 2025).

Legend:
FLT4 = FLT4 (Homo sapiens, UniProt P35916); experiment: KINOMEscan; details: read-out: Percent Control
Description: (§1) The kinase engagement assay (KINOMEscan®) was performed by DiscoverX assessing binding abilities toward a set of kinases.

TBK1 = TBK1 (Homo sapiens, UniProt Q9UHD2); experiment: KINOMEscan; details: read-out: Percent Control
Description: as §1

PAK2 = PAK2 (Homo sapiens, UniProt Q13177); experiment: PAK2 degradation in MCF7 and OVCAR3 cells, immunoblot; format: cell-based; parameters: due to their high expression of both PAK1 and PAK2; endogenous in cells; host or cells: MCF7, OVCAR3
Description: […]. Cells were incubated overnight then treated with various concentrations of Pak degraders alone or together with bortezomib or lenalidomide for 24 hours. Protein lysates were harvested at the times specified.
Cells were washed once in PBS and lysed in RIPA buffer (50 mM Tris-HCl, 150 mM NaCl, 0.25% (w/v) sodium deoxycholate, 1% (w/v) NP-40, pH 7.5) containing protease inhibitor cocktail (Roche) and phosphatase inhibitor cocktail (Roche) for 30 minutes on ice. Cell lysates were obtained by centrifugation at 13,500 rpm for 15 minutes at 4° C. BCA protein assay (Thermo Scientific) was used to determine protein concentration then equal amounts of total proteins were separated by SDS-PAGE (Bio-Rad) and transferred to PVDF membrane (Thermo Scientific) at 100V for 2 hours. Membranes were blocked in 5% (w/v) non-fat dry milk in tris-buffered saline with 0.1% Tween-20 (TBS-T) for 1 hour and incubated with primary antibody at 4° C. for overnight. […]
After verifying that BJG-05-039 retained specificity for PAK1, its degradation activity in cells was characterized. First, the PAK1 degrader was evaluated in the breast cancer cell line MCF7 and the ovarian cancer cell line OVCAR3 due to their high expression of both PAK1 and PAK2 and their known dependence on PAK1 (Prudnikova, et al. (2016) Oncogene 35:2178-2185; Shrestha, et al. (2012) Oncogene 31:3397-3408). […]

CDK2 = CDK2 (Homo sapiens, UniProt P24941); experiment: KINOMEscan; details: read-out: Percent Control
Description: as §1

ACVR2B = ACVR2B (Homo sapiens, UniProt Q13705); experiment: KINOMEscan; details: read-out: Percent Control
Description: as §1

p38-gamma = p38-gamma (Homo sapiens, UniProt P53778); experiment: KINOMEscan; details: read-out: Percent Control
Description: as §1

[1] = target: ABL1(Q252H)-phosphorylated (Homo sapiens, UniProt P00519, Q252H); experiment: KINOMEscan; details: read-out: Percent Control
Description: as §1

EIF2AK1 = EIF2AK1 (Homo sapiens, UniProt Q9BQI3); experiment: KINOMEscan; details: read-out: Percent Control
Description: as §1

NEK5 = NEK5 (Homo sapiens, UniProt Q6P3R8); experiment: KINOMEscan; details: read-out: Percent Control
Description: as §1

ACVR2A = ACVR2A (Homo sapiens, UniProt P27037); experiment: KINOMEscan; details: read-out: Percent Control
Description: as §1

[2] = target: RSK3(Kin.Dom.1-N-terminal) (Homo sapiens, UniProt Q15349); experiment: KINOMEscan; details: read-out: Percent Control
Description: as §1

CAMK2A = CAMK2A (Homo sapiens, UniProt Q9UQM7); experiment: KINOMEscan; details: read-out: Percent Control
Description: as §1

CHEK2 = CHEK2 (Homo sapiens, UniProt O96017); experiment: KINOMEscan; details: read-out: Percent Control
Description: as §1

CDKL1 = CDKL1 (Homo sapiens, UniProt Q00532); experiment: KINOMEscan; details: read-out: Percent Control
Description: as §1

AMPK-alpha2 = AMPK-alpha2 (Homo sapiens, UniProt P54646); experiment: KINOMEscan; details: read-out: Percent Control
Description: as §1

MARK2 = MARK2 (Homo sapiens, UniProt Q7KZI7); experiment: KINOMEscan; details: read-out: Percent Control
Description: as §1

SNARK = SNARK (Homo sapiens, UniProt Q9H093); experiment: KINOMEscan; details: read-out: Percent Control
Description: as §1

MAP3K2 = MAP3K2 (Homo sapiens, UniProt Q9Y2U5); experiment: KINOMEscan; details: read-out: Percent Control
Description: as §1

KIT(D816H) = KIT(D816H) (Homo sapiens, UniProt P10721, D816H); experiment: KINOMEscan; details: read-out: Percent Control
Description: as §1

MTOR = MTOR (Homo sapiens, UniProt P42345); experiment: KINOMEscan; details: read-out: Percent Control
Description: as §1

PLK1 = PLK1 (Homo sapiens, UniProt P53350); experiment: KINOMEscan; details: read-out: Percent Control
Description: as §1

NEK11 = NEK11 (Homo sapiens, UniProt Q8NG66); experiment: KINOMEscan; details: read-out: Percent Control
Description: as §1

DYRK2 = DYRK2 (Homo sapiens, UniProt Q92630); experiment: KINOMEscan; details: read-out: Percent Control
Description: as §1

MST3 = MST3 (Homo sapiens, UniProt Q9Y6E0); experiment: KINOMEscan; details: read-out: Percent Control
Description: as §1

WNK4 = WNK4 (Homo sapiens, UniProt Q96J92); experiment: KINOMEscan; details: read-out: Percent Control
Description: as §1

AURKA = AURKA (Homo sapiens, UniProt O14965); experiment: KINOMEscan; details: read-out: Percent Control
Description: as §1

S6K1 = S6K1 (Homo sapiens, UniProt P23443); experiment: KINOMEscan; details: read-out: Percent Control
Description: as §1

DCAMKL1 = DCAMKL1 (Homo sapiens, UniProt O15075); experiment: KINOMEscan; details: read-out: Percent Control
Description: as §1

ACVRL1 = ACVRL1 (Homo sapiens, UniProt P37023); experiment: KINOMEscan; details: read-out: Percent Control
Description: as §1

Chain of TBK1 (Q9UHD2 whole entry): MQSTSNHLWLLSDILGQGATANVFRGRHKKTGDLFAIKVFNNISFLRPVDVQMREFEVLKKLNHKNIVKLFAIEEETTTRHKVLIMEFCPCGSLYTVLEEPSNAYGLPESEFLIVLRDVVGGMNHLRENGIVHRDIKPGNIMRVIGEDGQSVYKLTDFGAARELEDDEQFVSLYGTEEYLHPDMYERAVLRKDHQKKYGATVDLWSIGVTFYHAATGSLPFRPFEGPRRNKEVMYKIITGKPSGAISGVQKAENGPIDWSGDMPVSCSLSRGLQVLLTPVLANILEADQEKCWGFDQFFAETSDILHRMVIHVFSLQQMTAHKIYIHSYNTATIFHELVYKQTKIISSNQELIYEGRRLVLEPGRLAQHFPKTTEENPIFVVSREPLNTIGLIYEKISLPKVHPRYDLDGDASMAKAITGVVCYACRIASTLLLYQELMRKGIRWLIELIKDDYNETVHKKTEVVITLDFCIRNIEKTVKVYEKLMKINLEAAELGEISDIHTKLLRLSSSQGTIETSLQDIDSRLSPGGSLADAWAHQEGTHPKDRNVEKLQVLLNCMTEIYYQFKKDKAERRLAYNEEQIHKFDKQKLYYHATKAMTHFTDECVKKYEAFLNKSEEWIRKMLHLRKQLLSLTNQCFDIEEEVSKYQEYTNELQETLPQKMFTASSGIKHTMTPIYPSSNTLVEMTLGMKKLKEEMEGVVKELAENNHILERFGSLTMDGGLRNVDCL
Chain of ACVR2A (P27037 20-513): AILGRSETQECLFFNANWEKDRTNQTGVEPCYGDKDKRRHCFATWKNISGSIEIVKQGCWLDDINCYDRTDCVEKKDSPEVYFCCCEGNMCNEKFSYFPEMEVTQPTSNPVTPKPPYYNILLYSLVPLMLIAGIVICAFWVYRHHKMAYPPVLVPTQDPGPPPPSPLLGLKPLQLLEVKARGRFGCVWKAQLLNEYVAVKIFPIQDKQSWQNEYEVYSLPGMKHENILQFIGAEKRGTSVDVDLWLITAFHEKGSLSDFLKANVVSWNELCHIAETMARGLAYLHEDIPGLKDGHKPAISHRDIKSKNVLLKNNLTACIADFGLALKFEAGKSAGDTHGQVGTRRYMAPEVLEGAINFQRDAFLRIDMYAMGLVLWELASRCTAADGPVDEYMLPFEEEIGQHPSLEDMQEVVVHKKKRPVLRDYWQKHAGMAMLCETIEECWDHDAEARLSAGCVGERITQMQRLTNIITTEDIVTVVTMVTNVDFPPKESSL
Chain of S6K1 (P23443 whole entry): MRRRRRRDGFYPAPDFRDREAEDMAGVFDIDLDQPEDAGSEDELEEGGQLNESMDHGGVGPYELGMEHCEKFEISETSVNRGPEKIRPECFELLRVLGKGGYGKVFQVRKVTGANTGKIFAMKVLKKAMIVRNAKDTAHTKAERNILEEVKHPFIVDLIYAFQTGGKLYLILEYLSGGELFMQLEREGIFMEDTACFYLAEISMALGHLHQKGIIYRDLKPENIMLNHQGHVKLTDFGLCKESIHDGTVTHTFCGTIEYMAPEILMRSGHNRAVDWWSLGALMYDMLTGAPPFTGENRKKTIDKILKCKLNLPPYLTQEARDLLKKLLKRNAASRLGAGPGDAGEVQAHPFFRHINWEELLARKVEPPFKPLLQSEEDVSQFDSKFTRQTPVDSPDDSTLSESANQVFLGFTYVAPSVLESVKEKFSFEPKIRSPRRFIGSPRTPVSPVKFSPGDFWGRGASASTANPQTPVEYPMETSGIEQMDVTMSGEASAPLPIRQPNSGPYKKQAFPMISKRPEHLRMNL
Chain of EIF2AK1 (Q9BQI3 whole entry): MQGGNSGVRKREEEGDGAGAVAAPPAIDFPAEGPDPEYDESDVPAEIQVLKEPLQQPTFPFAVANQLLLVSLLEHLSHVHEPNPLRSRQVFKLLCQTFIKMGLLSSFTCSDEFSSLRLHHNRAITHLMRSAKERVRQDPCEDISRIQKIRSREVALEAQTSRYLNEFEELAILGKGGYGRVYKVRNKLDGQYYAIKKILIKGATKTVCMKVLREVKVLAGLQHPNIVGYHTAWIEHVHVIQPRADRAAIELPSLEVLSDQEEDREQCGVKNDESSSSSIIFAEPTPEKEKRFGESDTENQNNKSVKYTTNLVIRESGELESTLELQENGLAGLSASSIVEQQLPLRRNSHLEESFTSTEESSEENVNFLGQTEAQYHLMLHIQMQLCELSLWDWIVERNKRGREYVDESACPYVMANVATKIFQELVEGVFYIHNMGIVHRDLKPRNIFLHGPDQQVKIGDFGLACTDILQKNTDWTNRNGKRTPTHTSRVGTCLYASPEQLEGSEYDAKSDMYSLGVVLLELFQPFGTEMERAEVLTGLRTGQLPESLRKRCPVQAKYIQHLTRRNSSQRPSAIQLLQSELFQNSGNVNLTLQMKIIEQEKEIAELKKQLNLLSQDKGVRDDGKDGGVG
Chain of DYRK2 (Q92630 whole entry): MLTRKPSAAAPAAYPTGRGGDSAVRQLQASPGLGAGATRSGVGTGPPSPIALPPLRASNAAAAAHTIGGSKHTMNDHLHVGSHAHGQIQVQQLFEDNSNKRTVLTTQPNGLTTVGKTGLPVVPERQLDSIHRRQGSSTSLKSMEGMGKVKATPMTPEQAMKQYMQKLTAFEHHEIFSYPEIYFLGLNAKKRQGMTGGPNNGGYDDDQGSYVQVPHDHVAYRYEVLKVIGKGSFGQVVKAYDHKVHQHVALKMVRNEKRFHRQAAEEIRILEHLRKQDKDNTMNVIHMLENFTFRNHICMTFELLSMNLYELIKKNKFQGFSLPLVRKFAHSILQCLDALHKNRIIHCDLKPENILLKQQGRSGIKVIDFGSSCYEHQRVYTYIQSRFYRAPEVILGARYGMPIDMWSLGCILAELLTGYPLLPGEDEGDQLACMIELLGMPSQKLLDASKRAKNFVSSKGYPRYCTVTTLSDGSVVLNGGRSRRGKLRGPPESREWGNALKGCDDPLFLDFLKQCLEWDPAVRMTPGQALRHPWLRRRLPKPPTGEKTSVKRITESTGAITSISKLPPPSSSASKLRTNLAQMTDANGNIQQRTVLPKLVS
Chain of DCAMKL1 (O15075 whole entry): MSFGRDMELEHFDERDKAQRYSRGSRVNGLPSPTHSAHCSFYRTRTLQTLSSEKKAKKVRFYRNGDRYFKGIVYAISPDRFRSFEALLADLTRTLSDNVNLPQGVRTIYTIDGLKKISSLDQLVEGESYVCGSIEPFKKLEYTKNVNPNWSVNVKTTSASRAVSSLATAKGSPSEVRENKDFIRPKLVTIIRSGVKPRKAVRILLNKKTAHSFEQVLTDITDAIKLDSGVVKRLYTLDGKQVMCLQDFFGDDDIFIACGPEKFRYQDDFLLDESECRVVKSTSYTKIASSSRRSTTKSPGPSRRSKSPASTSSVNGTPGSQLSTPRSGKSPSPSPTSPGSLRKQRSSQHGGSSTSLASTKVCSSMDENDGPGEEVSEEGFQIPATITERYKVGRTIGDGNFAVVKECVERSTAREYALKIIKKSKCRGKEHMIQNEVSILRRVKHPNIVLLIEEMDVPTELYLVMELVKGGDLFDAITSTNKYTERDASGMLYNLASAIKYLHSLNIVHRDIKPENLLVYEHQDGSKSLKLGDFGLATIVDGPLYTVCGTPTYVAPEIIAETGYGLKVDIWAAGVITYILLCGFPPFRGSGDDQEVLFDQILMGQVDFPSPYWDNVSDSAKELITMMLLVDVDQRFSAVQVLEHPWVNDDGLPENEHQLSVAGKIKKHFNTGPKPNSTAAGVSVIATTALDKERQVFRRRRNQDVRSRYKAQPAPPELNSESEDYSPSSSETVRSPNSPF
Chain of AURKA (O14965 whole entry): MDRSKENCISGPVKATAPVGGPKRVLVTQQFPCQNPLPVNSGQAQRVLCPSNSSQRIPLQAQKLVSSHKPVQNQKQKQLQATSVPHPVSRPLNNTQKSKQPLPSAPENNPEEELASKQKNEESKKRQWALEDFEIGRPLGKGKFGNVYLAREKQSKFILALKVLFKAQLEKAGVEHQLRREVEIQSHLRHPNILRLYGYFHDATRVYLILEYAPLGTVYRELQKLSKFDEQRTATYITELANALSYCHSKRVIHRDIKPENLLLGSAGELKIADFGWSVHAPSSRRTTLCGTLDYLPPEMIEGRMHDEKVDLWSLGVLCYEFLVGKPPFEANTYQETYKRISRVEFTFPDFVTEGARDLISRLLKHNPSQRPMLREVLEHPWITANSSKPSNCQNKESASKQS
Chain of SNARK (Q9H093 whole entry): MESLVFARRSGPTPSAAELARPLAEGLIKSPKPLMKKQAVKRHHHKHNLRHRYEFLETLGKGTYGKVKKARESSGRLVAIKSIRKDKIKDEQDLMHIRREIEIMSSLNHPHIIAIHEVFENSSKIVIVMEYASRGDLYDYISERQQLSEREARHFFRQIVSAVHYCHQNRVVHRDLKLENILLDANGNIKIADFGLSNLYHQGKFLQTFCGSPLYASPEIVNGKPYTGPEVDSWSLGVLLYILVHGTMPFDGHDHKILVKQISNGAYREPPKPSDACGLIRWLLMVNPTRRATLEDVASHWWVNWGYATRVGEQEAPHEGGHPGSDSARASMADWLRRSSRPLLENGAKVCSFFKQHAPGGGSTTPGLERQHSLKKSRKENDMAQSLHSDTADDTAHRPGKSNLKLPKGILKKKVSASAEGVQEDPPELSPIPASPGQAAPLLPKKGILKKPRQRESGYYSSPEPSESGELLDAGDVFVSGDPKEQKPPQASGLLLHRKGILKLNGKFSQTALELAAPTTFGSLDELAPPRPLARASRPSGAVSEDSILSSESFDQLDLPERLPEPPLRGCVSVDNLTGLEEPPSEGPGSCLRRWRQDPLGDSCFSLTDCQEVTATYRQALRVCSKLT
Chain of RSK3(Kin.Dom.1-N-terminal) (Q15349 59-318 limits assumed): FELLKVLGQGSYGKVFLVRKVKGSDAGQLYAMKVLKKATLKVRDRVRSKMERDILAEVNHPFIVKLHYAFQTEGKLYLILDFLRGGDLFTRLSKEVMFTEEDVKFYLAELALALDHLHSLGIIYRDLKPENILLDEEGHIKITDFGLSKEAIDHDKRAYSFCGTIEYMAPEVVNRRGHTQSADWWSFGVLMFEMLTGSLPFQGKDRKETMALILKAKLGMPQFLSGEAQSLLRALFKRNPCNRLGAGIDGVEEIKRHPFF

## O=C1CCC(N2C(=O)c3cccc(NCCCCCCCCNC(=O)N4CC[C@H](NC5=Nc6cc(F)ccc6N(CC(F)F)c6ccc(Cl)cc65)C4)c3C2=O)C(=O)N1 (stereo partly drawn) [BJG-05-039, (3S)-3-((2-Chloro-5-(2,2-difluoroethyl)-8-fluoro-5H-dibenzo[b,e][1,4]diazepin-11-yl)amino)-N-(8-((2-(2,6-dioxopiperidin-3-yl)-1,3-dioxoisoindolin-4-yl)amino)octyl)pyrrolidine-1-carboxamide]
FLT4
  remaining binding at 10 µM: 86%
TBK1
  remaining binding at 10 µM: 100%
PAK2
  PAK2 degradation: not PAK2
CDK2
  remaining binding at 10 µM: 69%
ACVR2B
  remaining binding at 10 µM: 46%
p38-gamma
  remaining binding at 10 µM: 99%
[1]
  remaining binding at 10 µM: 100%
EIF2AK1
  remaining binding at 10 µM: 98%
NEK5
  remaining binding at 10 µM: 65%
ACVR2A
  remaining binding at 10 µM: 51%
[2]
  remaining binding at 10 µM: 90%
CAMK2A
  remaining binding at 10 µM: 39%
CHEK2
  remaining binding at 10 µM: 62%
CDKL1
  remaining binding at 10 µM: 99%
AMPK-alpha2
  remaining binding at 10 µM: 100%
MARK2
  remaining binding at 10 µM: 38%
SNARK
  remaining binding at 10 µM: 96%
MAP3K2
  remaining binding at 10 µM: 76%
KIT(D816H)
  remaining binding at 10 µM: 100%
MTOR
  remaining binding at 10 µM: 74%
PLK1
  remaining binding at 10 µM: 82%
NEK11
  remaining binding at 10 µM: 100%
DYRK2
  remaining binding at 10 µM: 89%
MST3
  remaining binding at 10 µM: 52%
WNK4
  remaining binding at 10 µM: 77%
AURKA
  remaining binding at 10 µM: 100%
S6K1
  remaining binding at 10 µM: 89%
DCAMKL1
  remaining binding at 10 µM: 77%
ACVRL1
  remaining binding at 10 µM: 71%
